{
  "source": "paper PMC7609463",
  "about": "(Frontiers in Pharmacology, 2020)",
  "key": {"[1]": {"molecular_target": "T1, ZIKV NS2B-NS3 protease (ZIKVpro, gZiPro) (Zika virus, UniProt A0A024B7W1)", "T1 construct": "The cDNA coding for residues 45–96 of ZIKV NS2B; the N terminus of NS3 (residues 1–177); poly-histidine tag (C); made in house; host or cells: E. coli BL21(DE3), pET28a (NcoI/XhoI)", "T1 sequence (A0A024B7W1 1417-1468)": "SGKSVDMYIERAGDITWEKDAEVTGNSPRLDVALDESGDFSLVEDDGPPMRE", "T1 sequence (A0A024B7W1 1503-1679)": "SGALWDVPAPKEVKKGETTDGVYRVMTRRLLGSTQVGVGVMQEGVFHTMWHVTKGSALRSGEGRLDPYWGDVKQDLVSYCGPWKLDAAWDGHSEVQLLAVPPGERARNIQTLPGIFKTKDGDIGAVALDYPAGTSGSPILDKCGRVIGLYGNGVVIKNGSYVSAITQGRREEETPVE", "assay": "Octet bio-layer interferometry binding assay with biotinylated ZIKVpro (gZiPro)", "details": "for binding to ZIKVpro in Octet assay: compound 50 μM; for Response (Octet binding assay): compound 50 µM, biotinylated ZIKVpro, binding profile as nm shift", "text": "Intermolecular interactions between gZiPro and selected compounds were detected by using BLI technology on the ForteBio Octet Red system (Pall FortéBio, Inc, Menlo Park, USA). The biotinylated protein gZipro was immobilized onto super streptavidin biosensors (Pall FortéBio Inc.), and then blocked with biocytin (Sigma). […] Sensorgrams were double-referenced, corrected for solvent effects, and then fit using OctetRed user software (Pall FortéBio Inc.). The binding profile of each sample was summarized as an “nm shift” (the wavelength or spectral shift in nanometers), which represented the difference between the start and end of the kinetic cycle. Steady-state and kinetic responses were fit to a simple binding model to obtain values for association (Kon) and dissociation (Koff) rate constants and the equilibrium dissociation constant (Kd). The Langmuir’s 1:1 binding model was applied to fit the interferometry data."}, "ZIKVpro": {"system": "ZIKVpro", "details": "2017, read-out: IC50 against ZIKVpro, cited from earlier work"}, "ZIKV [2]": {"system": "ZIKV", "assay": "protection of Vero E6 cell viability against ZIKV-induced cytopathic effect (CCK-8)", "assay_type": "cell-based, Zika virus", "details": "Vero E6 cells", "description": "Cell viability was performed by Cell Counting Kit-8 (CCK-8) (Beyotime, China). Typically, 8×10^4 cells/ml Vero E6 cells were seeded in the wells of 96-well plate at 100 μl/well and grown for 24 h. The compound 1 μl was added to the cells, after which cells were infected with ZIKV at MOI of 0.05. Ribavirin and DMSO were used as positive and negative control, respectively. […] The absorbance at 450 nm was subsequently measured using EnSpire 2300 Multilable Reader (PerkinElmer). The inhibition rate of the tested compounds was calculated with the following equation:\nInhibition rate%=100-[ODtested compound−ODmock−infected cells/ODinfected cells−ODmock−infected cells]×100%"}, "Vero E6 cells": {"system": "Vero E6 cells", "assay": "cytotoxicity in Vero E6 cells (CCK-8)", "assay_type": "cell-based, African green monkey", "details": "0.3125~40 μM"}, "ZIKV [3]": {"system": "ZIKV", "assay": "qRT-PCR of viral RNA in ZIKV-infected Vero E6 cells", "assay_type": "cell-based, Zika virus", "details": "dose-dependent", "description": "To determine the viral RNA number by qRT-PCR, total intracellular RNAs were extracted from the infected cells (control and treated) by treatment with TRIzol reagent (Invitrogen, USA) according to the manufacturer’s protocol. The cDNA was synthesized using Primescript RT Master Kit (Takara, Japan). Level of viral RNA was determined by performing qRT-PCR analysis using SYBR premix Ex Taq II kit (Takara) according to the instructions. The primer sequences used for the Zika virus genes are 5’-[…]-3’ (forward) and 5’-[…]-3’ (reverse). For quantification, the 2^−ΔΔCt method was used to calculate the relative RNA levels against GAPDH."}, "ZIKV [4]": {"system": "ZIKV", "assay": "western blot of ZIKV NS3 expression in infected Vero E6 cells", "assay_type": "cell-based, Zika virus", "details": "dose-dependent", "description": "(§1) Vero E6 cells were seeded at a density of 2×10^5 cells per well in 6-well plate. After overnight incubation, 2 µl DMSO (Sigma-Aldrich) or 2 µl chemical compounds were added to each well at the designated concentration. Then cells were infected with ZIKV at MOI of 0.05. Ribavirin and DMSO were used as positive and negative control, respectively. After a further incubation for 72 h at 37°C, cells were lysed with 100 μl of lysis buffer (50mM Tris, 150mM NaCl, 1% NP-40, 0.5% sodium deoxycholate, pH 7.4). Cell lysate was subjected to denaturing gel electrophoresis with 10% Bis-Tris Gel. The proteins were transferred onto PVDF membranes (Millipore, USA) and immunoblotted with indicated antibodies. The following antibodies were used for the detection of proteins: Anti-NS2B antibody (GTX133308, 1:1,000, GeneTex), Anti-NS3 antibody(GTX133320, 1:1,000, GeneTex), Anti-NS4A antibody (GTX133704, 1:1,000, GeneTex), Anti-prM antibody, Anti-β actin antibody (mAbcam 8224, 1:5000, Abcam) was used as a loading control. […]\n(§2) Quantification of signals on Western blots was done using the Image pro 10 (Media cybernetics, USA) Imaging and Processing Analysis Software with signaling intensity normalized to loading control. […] Membranes were imaged and quantified in 800 nm channelsin the Odyssey Infrared Imaging System using Odyssey V3.0 software (LI-COR, Lincoln, NE)."}, "ZIKV [5]": {"system": "ZIKV", "assay": "western blot of viral protein in ZIKV-infected U-87 MG cells", "assay_type": "cell-based, Zika virus", "details": "dose-dependent"}, "ZIKV [6]": {"system": "ZIKV", "assay": "time-of-drug-addition assay (qRT-PCR, Vero E6)", "assay_type": "cell-based, Zika virus", "details": "ZP10 25 μM or antibody 0.1 μg/ml, Vero E6, 24 hpi", "description": "For the pre-treatment group, Vero E6 cells were seeded 12-well plates (2.5×10^5 cells/well). […] Next, Vero E6 cells were washed with PBS once before the addition of mixture. The 600 μl mixture was added into cells for 1 h at 4°C. […] Infected cells were collected at 24 hpi. The cell lysate was collected for viral RNA copies measurement using qRT-PCR. DMSO was included as negative control. The experiments were performed in triplicate and repeated twice for confirmation."}, "[7]": {"system": "ZIKV polyprotein precursor cleavage by ZIKVpro", "assay": "western blot of viral polyprotein precursor processing in ZIKV-infected Vero E6 cells", "assay_type": "cell-based, Zika virus", "details": "especially at 6.25 µM", "description": "as §1, §2"}, "[8]": {"molecular_target": "T2, ZIKV NS2B-NS3 protease (ZIKVpro) (Zika virus, UniProt A0A024B7W1)", "T2 construct": "The cDNA coding for residues 45–96 of ZIKV NS2B; the N terminus of NS3 (residues 1–177); poly-histidine tag (C); made in house; host or cells: E. coli BL21(DE3), pET28a (NcoI/XhoI)", "T2 sequence (A0A024B7W1 1417-1468)": "as the sequence (A0A024B7W1 1417-1468) above", "T2 sequence (A0A024B7W1 1503-1679)": "as the sequence (A0A024B7W1 1503-1679) above", "assay": "fluorescence-based ZIKVpro protease inhibition screening assay (Bz-nKKR-AMC substrate)", "assay_type": "biochemical", "details": "for pIC50: 150 nM ZIKVpro, 1 h preincubation at 37 °C, 50 μM Bz-nKKR-AMC; for inhibition at 20 µM: read-out: Inhibition Activity% (primary high-throughput screening)", "experimental": "For initial screening, each compound was dissolved in dimethyl sulfoxide (DMSO) to obtain 20 mM stock solution. […] The reaction was started by addition of Bz-nKKR-AMC substrate at 50 µM and fluorescence readings were measured at 30 s intervals over 10 min using Enspire (Perkin Elmer, USA) at excitation wavelength(λex) at 360 nm and emission wavelength(λem) at 460 nm. Assays were carried out as triplicates at 37 °C.\nThe protease activity of the DMSO control was set as 100%. The protease activities with compounds were set as percentage of the DMSO control. Data was fitted using the log(inhibitor) vs. response - variable slope (four parameters) model within the graphpad prism 7.0 software.\nInhibition activity=100-[S–S0/C−C0]×100%\nS: the RFUs of the test sample (enzyme, inhibitor, buffer, and substrate) after 10 min of reaction\nS0: the RFUs of the tested samples at time zero.\nC: the RFUs of the control (enzyme, buffer, and substrate) after 10 min of reaction\nC0: the RFUs of the control at time zero"}, "dengue virus": {"system": "dengue virus", "design": "method as in Constant et al., 2018", "details": "ref Constant et al., 2018; read-out: EC50 of inhibiting viral growth; cited from earlier work"}, "viral proteinase NS2B/3": {"molecular_target": "viral proteinase NS2B/3", "design": "method as in Constant et al., 2018", "details": "ref Constant et al., 2018; read-out: IC50 of enzymatic activity of the viral proteinase; cited from earlier work"}, "[9]": {"system": "CCCC[C@H](NC(=O)c1ccccc1)C(=O)N[C@@H](CCCCN)C(=O)N[C@@H](CCCCN)C(=O)N[C@@H](CCCNC(=N)N)C(=O)Nc1ccc2c(C)cc(=O)oc2c1", "assay": "purified protein, by the assay type", "details": "other: substrate 5 to 320 µM, 150 nM protease, 37 °C, pH 7.5", "experimental": "Proteolytic activity of NS2B-NS3 protease was measured using benzoyl-norleucine-lysine-lysine-arginine 7-amino-4-methylcoumarine (Bz-nKKR-AMC). Bz-nKKR-AMC substrate with starting concentration of 300 μM was serially diluted two times in reaction buffer (50 mM Tris-HCl, pH 7.5, 150 mM NaCl) and added to 96-well black plate (Costar, USA) with 150 nM protein diluted in the same buffer. For kinetics measurements, fluorescence readings were measured at 30 s interval for 5 min using Enspire (Perkin Elmer) at excitation wavelength (λex) at 360 nm and emission wavelength (λem) at 460 nm. Assays were carried out as triplicates at 37 °C. Michaelis-Menten constant (Km) was calculated by graphpad prism5.0."}},
  "note": "pEC50, pIC50: −log10 of the molar value. Entries after “also recorded” stand apart in the source; their conditions may differ. Read-outs that look alike come from different tables or passages of the source.",
  "data": [
    {"molecule": "O=C(OC[C@H]1O[C@@H](OC(=O)c2cc(O)c(O)c(OC(=O)c3cc(O)c(O)c(O)c3)c2)[C@H](OC(=O)c2cc(O)c(O)c(OC(=O)c3cc(O)c(O)c(O)c3)c2)[C@@H](OC(=O)c2cc(O)c(O)c(OC(=O)c3cc(O)c(O)c(O)c3)c2)[C@@H]1OC(=O)c1cc(O)c(O)c(OC(=O)c2cc(O)c(O)c(O)c2)c1)c1cc(O)c(O)c(OC(=O)c2cc(O)c(O)c(O)c2)c1", "note": "[ZP3, tannic acid]", "values": [
      {"measurement": "binding to ZIKVpro in Octet assay", "setting": "[1]", "result": "direct binding"},
      {"measurement": "Response (Octet binding assay)", "setting": "[1]", "result": 0.1091}
    ]},
    {"molecule": "O=c1cc(-c2ccc(O)cc2)oc2cc(O)cc(O)c12", "note": "[Apigenin]", "values": [
      {"measurement": "pIC50", "setting": "ZIKVpro; ref Roy et al.", "result": 4.25}
    ]},
    {"molecule": "O=C(OC1Cc2c(O)cc(O)cc2OC1c1cc(O)c(=O)c2c(O)c(O)cc(C3Oc4cc(O)cc(O)c4CC3OC(=O)c3cc(O)c(O)c(O)c3)c2c1)c1cc(O)c(O)c(O)c1", "note": "(stereo not shown) [ZP10, theaflavin-3,3’-digallate]", "values": [
      {"measurement": "ZIKV-induced CPE (cell morphology)", "setting": "ZIKV [2]; 72 hpi, ZP10 6.25 µM to 25.0 µM", "result": "attenuated to a large extent"},
      {"measurement": "pEC50", "setting": "ZIKV [2]; Zika virus, Vero C1008, MOI 0.05, CCK-8 read-out, read-out: EC50 of inhibition of ZIKV replication (CPE protection)", "result": 5.12},
      {"measurement": "cytotoxicity (cell viability, CCK-8)", "setting": "Vero E6 cells", "result": "minor cytotoxicity up to 40 μM; also recorded: low cytotoxicity"},
      {"measurement": "viral RNA copy numbers", "setting": "ZIKV [3]", "result": "markedly reduced"},
      {"measurement": "NS3 protein expression", "setting": "ZIKV [4]", "result": "markedly reduced"},
      {"measurement": "viral protein expression (NS3 and envelope)", "setting": "ZIKV [5]", "result": "considerably reduces"},
      {"measurement": "effect on ZIKV entry / replication when added before or after virus adsorption (0–1 hpi)", "setting": "ZIKV [6]", "result": "no effect of ZP10 on ZIKV entry"},
      {"measurement": "cleavage processing of polyprotein precursor (PP)", "setting": "[7]", "result": "impaired cleavage processing of PP"}
    ]},
    {"molecule": "merbromin [ZP1]", "values": [
      {"measurement": "pIC50", "setting": "[8]", "result": 5.04},
      {"measurement": "binding to ZIKVpro in Octet assay", "setting": "[1]", "result": "direct binding"},
      {"measurement": "Response (Octet binding assay)", "setting": "[1]", "result": 1.0863}
    ]},
    {"molecule": "Cc1cc2c(C(C)C)c(O)c(O)c(C=O)c2c(O)c1-c1c(C)cc2c(C(C)C)c(O)c(O)c(C=O)c2c1O", "note": "[ZP4]", "values": [
      {"measurement": "inhibition at 20 µM", "setting": "[8]", "result": 59.7, "unit": "%"},
      {"measurement": "Response (Octet binding assay)", "setting": "[1]", "result": -0.046}
    ]},
    {"molecule": "O=c1c(O)c(-c2cc(O)c(O)c(O)c2)oc2cc(O)cc(O)c12", "note": "[Myricetin, myricetin]", "values": [
      {"measurement": "pIC50", "setting": "[8]", "result": 4.31},
      {"measurement": "pIC50", "setting": "ZIKVpro; ref Lim et al.", "result": 4.66},
      {"measurement": "pIC50", "setting": "ZIKVpro; ref Roy et al.", "result": 5.89}
    ]},
    {"molecule": "O=C1c2c(O)ccc([N+](=O)[O-])c2C(=O)c2c([N+](=O)[O-])ccc(O)c21", "note": "[ARDP006]", "values": [
      {"measurement": "pEC50", "setting": "dengue virus", "result": 5.38},
      {"measurement": "pIC50", "setting": "viral proteinase NS2B/3", "result": 3.36}
    ]},
    {"molecule": "CCCCCCCCCCCCCc1cccc(O)c1C(=O)O", "note": "[ZP9]", "values": [
      {"measurement": "pIC50", "setting": "[8]", "result": 5.85},
      {"measurement": "inhibition at 20 µM", "setting": "[8]", "result": 82.2, "unit": "%"},
      {"measurement": "Response (Octet binding assay)", "setting": "[1]", "result": -0.0005}
    ]},
    {"molecule": "ZIKV NS2B-NS3 protease (ZIKVpro) (Zika virus ZIKV/H. sapiens/FrenchPolynesia/10087PF/2013)", "values": [
      {"measurement": "Km", "setting": "[9]", "result": 30.51, "unit": "µM"}
    ]}
  ]
}
